For data set [1], the system named is SMN2 exon 7. The conditions noted are these: mouse brain; cited from earlier work.
The test system of the next data set is SMN mouse model. The conditions noted are these: cited from earlier work.
The conditions of data set [2]: mice, oral, 3 mg/Kg, serum; read-out: Cmax (maximum concentration); cited from earlier work.
In data set [3] the test system is SMN2 exon 7. The data set can be described thus: SMN2/transactivator minigene exon 7 splicing, semi-quantitative RT-PCR. The class given is cell-based, human. The text has this: FIGS. 4a-c show modified SMN2/transactivator minigenes express spliced RNA transcript isoforms to constitutively exclude (CSI3) or include (CSI5) exon7, influencing background expression of the optimized RNAi promoter. […] The 3′ and 5′ Exon7 splicing sites in the SMN2/transactivator minigene were modified to constitutively exclude (CSI3, 3′ modified) or include (CSI5, 5′ modified) exon 7.
FIGS. 5a-b show splicing and activity of CSI and CSI3 minigenes in response to LIM070.
To regulate transactivator expression, the transactivator was cloned downstream of a self-cleaving 2A peptide and the SMN2 minigene comprising exons 6-7 and the 5′ end of exon 8, and minimal intronic intervening sequences necessary to recapitulate SMN2 splicing^38 (FIG. 4a). Note that 10% of the transcripts include exon 7, similar to the native SMN2 genetic state. The transcripts produce transactivator that partially activates the RNAi expression cassette. Thus, the 3′ and 5′ Exon7 splicing sites in the SMN2/transactivator minigene were modified to constitutively exclude (CSI3, 3′ modified) or include (CSI5, 5′ modified) exon 7, which minimizes RNAi promoter background activation^39 (FIGS. 4b-c). […] Also, the entire cassette fits into rAAV.

The test system of another data set is HEK293 cells. The data set can be described thus: De novo exon splicing in response to LMI070, RNA-seq and PCR validation. Type of data set: cell-based, human. The conditions noted are these: LMI070 25 nM, PCR. The protocol:
The following methods were used to obtain the data illustrated in FIGS. 8-15. […] 12 hours after treatment RNA was extracted using Trizol followed by DNAseI treatment. Samples were evaluated for quality control on agilent bioanalyzer and all samples had RIN values >9.8 and were sent for Illumina RiboZero Gold total RNA library preparation and sequencing with an Illumina HiSeq4000. A 150 bp Pair end sequencing reads were obtained from illumina sequencing. Fastq files obtained from the illumina platform were aligned to the Human genome GRCh38 using the STAR aligner. SAM format alignment files output from STAR were sorted, converted to BAM format and indexed using Samtools. To visualize splicing at any region in the alignment BAM files were opened in IGV and visualized using the Sashimi plot function.
To identify regions of interest which contained high levels of differential splicing a custom R program was created. […] These files contained the raw counts obtained at each splice junction as calculated during alignment by STAR. […] 1) Read input files into R. 2) Create unique position IDs for each row (splice site) in the dataset. […] 6) sort the extracted reads from highest to lowest by Mean counts value. […]
The following methods were used to obtain the data in FIG. 16. […] As observed on the PCR, PCR products of higher size were detected on samples treated with LM1070 (FIG. 16). […]

The nature of data set [4]: LMI070 pharmacokinetics in mice, oral. The conditions noted are these: 3 mg/Kg. Type of data set: in vivo.
For a further data set, the system named is HTT. The data set can be described thus: SMN2_CRISPRi regulated epigenetic silencing, Western blot. Type of data set: cell-based, human. The conditions noted are these: RG7800 1 μM, HEK293 cells transfected with the SMN2_CRISPRi system. The protocol: (§1) HEK293 cells were transfected with plasmids encoding the CRISPRi silencing system (dCas9, sgRNA and MCP-Krab expression cassettes). Importantly, the dCas9 was cloned under the SMN2 splice regulated cassette to control dCas9 protein expression with RG7800. 24 hours after transfection, cells were selected using Puromicin (3 μM, 24 h), passaged onto a new plate, and treated with RG7800 (1 μM). HEK293 cells were lysed 36 h after RG7800 treatment using Passive lysis buffer (Promega, CA), and Huntingtin (HTT), Cas9 and Beta Catenin (Beta cat) protein levels were determined by Western Blot. Beta Catenin protein levels were determined as loading control. HTT, Cas9 and Beta Cat protein levels were quantified using the ChemiDoc Imaging System (Bio-Rad) and Imagine Lab analysis Software.

The test system of a further data set is Cas9. The data set is described as follows: SMN2_CRISPRi regulated Cas9 expression, Western blot. Type of data set: cell-based, human. The conditions noted are these: RG7800 1 μM, HEK293 cells transfected with the SMN2_CRISPRi system. The protocol: as §1
On the technique in general: In western blotting, separated proteins are transferred to a membrane and probed.

For a further data set, the system named is SMN2 minigene Exon 7. The data set is described as follows: SMN2 minigene PCR splicing assay with RG7800. The class given is cell-based, human. The conditions noted are these: RG7800 10 nM, 100 nM, 1 μM and 10 μM; HEK293. How it is done:
HEK293 cells were transfected with plasmids expressing the SMN2 minigene (0.3 μg) and 4 hours later treated with different doses of RG7800 (10 nM, 100 nM, 1 μM and 10 μM). 24 hours after transfection, RNA was harvested, DNAseI treated, and 1 μg of RNA was reverse transcribed to assess SMN2 minigene splicing using PCR. PCR products were separated on a 3% agarose gel and exon 7 production was quantified using the ChemiDoc Imaging System (Bio-Rad) and Imagine Lab analysis Software.

With `CC1(C)CC(Oc2ccc(-c3ccc(-c4cn[nH]c4)cc3O)nn2)CC(C)(C)N1` [LMI070], in the data set with SMN2 exon 7 [1], the “maximum dose reported to increase SMN2 exon 7 inclusion” value is on record as 30 mg/kg. Besides, the “minimal dose with therapeutic effects” value in the data set with SMN mouse model is recorded as 1 mg/kg. Moreover, the Cmax in data set [2] is 86 nM. In addition, the “exon 7 inclusion at brain-equivalent concentration” value with SMN2 exon 7 [3] (120 nM, CSI and CSI3 minigenes (FIG. 5)) is recorded as “induces exon 7 inclusion”. The “exon 7 inclusion in response to LMI070” value with SMN2 exon 7 [3] (HEK293 cells, CSI and CSI3 minigenes, 20 h after LMI070 treatment) was “dose-responsive”. Further, the “de novo exon splicing” value with HEK293 cells is “novel exons are included”. In addition, the “concentration in the brain” value in data set [4] is on record as 120 nM.

`CCc1nc(C)cn2nc(-c3cc(=O)n4cc(C5CCN(C)CC5)cc(C)c4n3)cc12` [RG7800]: the “HTT expression levels reduced” value in the data set with HTT is given as “about 45%”. For the same molecule, in the data set on Cas9, the Cas9 protein levels result is “increase”. Moreover, the “Exon 7 inclusion in the SMN2 minigene” value with SMN2 minigene Exon 7 is “induction of Exon 7 inclusion”.
